The target in the assay is T1, JAK3 (JH1 and JH2 domain) (Homo sapiens, UniProt P52333).
T1 sequence (P52333 521-1111 limits assumed): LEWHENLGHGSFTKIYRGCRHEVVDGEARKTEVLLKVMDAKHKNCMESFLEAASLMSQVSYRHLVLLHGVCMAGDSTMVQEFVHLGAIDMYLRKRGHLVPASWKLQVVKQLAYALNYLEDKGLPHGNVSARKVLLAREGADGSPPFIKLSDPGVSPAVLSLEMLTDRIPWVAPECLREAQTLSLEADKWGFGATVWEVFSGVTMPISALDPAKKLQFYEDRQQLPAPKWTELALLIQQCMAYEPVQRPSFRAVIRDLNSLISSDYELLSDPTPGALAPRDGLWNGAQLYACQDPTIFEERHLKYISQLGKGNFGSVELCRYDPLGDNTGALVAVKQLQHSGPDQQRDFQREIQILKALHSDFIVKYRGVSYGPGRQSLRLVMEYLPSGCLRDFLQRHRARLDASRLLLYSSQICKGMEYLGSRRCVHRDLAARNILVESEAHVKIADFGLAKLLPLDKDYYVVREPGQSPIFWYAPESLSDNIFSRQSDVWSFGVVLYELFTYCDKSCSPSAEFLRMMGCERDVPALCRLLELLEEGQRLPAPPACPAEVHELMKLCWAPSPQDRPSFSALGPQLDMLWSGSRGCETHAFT
As to the kind of experiment: JAK3 Kinase Assay (ELISA of peptide substrate phosphorylation). Type of assay: biochemical. As to conditions: purified JAK3 enzyme, 10 μM ATP, biotinylated peptide substrate, 1 hour at room temperature. In outline: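 Sf21-baculovirus-expressed JAK3 (JH1+JH2), glutathione-bead purified, with biotinylated peptide substrate (in buffer containing 10 μM ATP) in HEPES pH 7.5/MgCl2/DTT, 1 h RT. Product was captured on Neutravidin, detected with HRP anti-phosphotyrosine (PY99)/TMB, OD 450/650 nm. Triplicate 16-point half-log series from 200 μM gave IC50; otherwise % inhibition at 1 μM.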
(An ELISA detects its analyte on a solid surface through an enzyme-linked reagent.)
The IC50 is the point on the concentration scale where inhibition reaches its midpoint. For `CC(C)OCc1ccc2c(c1)c1c3c(c4c5ccccc5n5c4c1n2CC(CO)C5)CNC3=O` (stereo not shown) [Cpd 211, 9-(isopropoxymethyl)-12,13-(2-hydroxymethyl-propan-1,3-yl)-6,7,12,13-tetrahydro-5-oxo-5H-indolo[2,3-a]pyrrolo[3,4-c]carbazole], the IC50 turned out to be 107 nM.

In the case of `O=C1NCc2c1c1c3ccccc3n3c1c1c2c2cc(CO)ccc2n1CC(CO)C3` (stereo not shown) [Cpd 212, 9-hydroxymethyl-12,13-(2-hydroxymethyl-propan-1,3-yl)-6,7,12,13-tetrahydro-5-oxo-5H-indolo[2,3-a]pyrrolo[3,4-c]carbazole], the IC50 is 3 nM.

Turning to `O=C1NCc2c1c1c3ccccc3n3c1c1c2c2ccccc2n1CC(CO)(CO)C3` [Cpd 27, 12,13-(2,2-bis-hydroxymethyl-propan-1,3-yl)-6,7,12,13-tetrahydro-5-oxo-5H-indolo[2,3-a]pyrrolo[3,4-c]carbazole], the IC50 stood at 15 nM.

On to `CN1CCC(NCc2ccc3c(c2)c2c4c(c5c6ccccc6n6c5c2n3CC(O)C(O)C6)CNC4=O)CC1` (stereo not shown) [Cpd 195, 3-[(1-methyl-piperidin-4-yl)aminomethyl]-12,13-(2,3-dihydroxy-butan-1,4-yl)-6,7,12,13-tetrahydro-5-oxo-5H-indolo[2,3-a]pyrrolo[3,4-c]carbazole], for which the IC50 turned out to be 284 nM.

Consider `O=C1NCc2c1c1c3ccccc3n3c1c1c2c2ccccc2n1CC(O)(CO)C3` (stereo not shown) [Cpd 25, 12,13-(2-hydroxy-2-hydroxymethyl-propan-1,3-yl)-6,7,12,13-tetrahydro-5-oxo-5H-indolo[2,3-a]pyrrolo[3,4-c]carbazole], for which the IC50 came out at 29 nM.

`O=C1NCc2c1c1c3ccccc3n3c1c1c2c2ccccc2n1CCC(OC(=O)N1CCOCC1)CC3` (stereo not shown) [Cpd 185, 12,13-[3-(morpholin-4-yl-carbonyloxy)-pentan-1,5-yl]-6,7,12,13-tetrahydro-5-oxo-5H-indolo[2,3-a]pyrrolo[3,4-c]carbazole]: the IC50 turned out to be 69 nM.

In the case of `COc1ccc(CCNC(=O)OCC2Cn3c4ccccc4c4c5c(c6c7ccccc7n(c6c43)C2)C(=O)NC5)cc1OC` (stereo not shown) [Cpd 161, 12,13-(2-{[2-(3,4-dimethoxy-phenyl)ethyl]carbamoyloxymethyl}-propan-1,3-yl)-6,7,12,13-tetrahydro-5-oxo-5H-indolo[2,3-a]pyrrolo[3,4-c]carbazole], the IC50 came to 1010 nM.

Take `O=C1NC(=O)c2c1c1c3ccccc3n3c1c1c2c2ccccc2n1CC(OC(=O)N1CCOCC1)CC3` (stereo not shown) [Cpd 71, 12,13-[2-(morpholin-4-yl-carbonyloxy)-butan-1,4-yl]-12,13-dihydro-5,7-dioxo-6H-indolo[2,3-a]pyrrolo[3,4-c]carbazole]: the IC50 is 38 nM.

Turning to `COc1ccccc1CNC(=O)OCC1(O)Cn2c3ccccc3c3c4c(c5c6ccccc6n(c5c32)C1)C(=O)NC4` (stereo not shown) [Cpd 174, 12,13-{2-hydroxy-2-[(2-methoxy-benzyl)carbamoyloxymethyl]-propan-1,3-yl}-6,7,12,13-tetrahydro-5-oxo-5H-indolo[2,3-a]pyrrolo[3,4-c]carbazole], the IC50 turned out to be 166 nM.

Turning to `O=C1NC(=O)c2c1c1c3ccccc3n3c1c1c2c2ccccc2n1CC(OC(=O)N1CCN(CCc2ccccc2)CC1)C(O)C3` (stereo not shown) [Cpd 110, 12,13-(2-{[4-(2-phenyl-ethyl)piperazin-1-yl]carbamoyloxy}-3-hydroxy-butan-1,4-yl)-12,13-dihydro-5,7-dioxo-6H-indolo[2,3-a]pyrrolo[3,4-c]carbazole], the IC50 was 916 nM.

Turning to `O=C(NCc1ccc2c(c1)OCO2)OC1Cn2c3ccccc3c3c4c(c5c6ccccc6n(c5c32)CC1O)C(=O)NC4=O` (stereo not shown) [Cpd 80, 12,13-{2-[(benzo[1,3]dioxol-5-yl-methyl)carbamoyloxy]-3-hydroxy-butan-1,4-yl}-12,13-dihydro-5,7-dioxo-6H-indolo[2,3-a]pyrrolo[3,4-c]carbazole], the IC50 amounted to 100 nM.

As for `O=C1NC(=O)c2c1c1c3ccccc3n3c1c1c2c2ccccc2n1CC(OC(=O)N1CCN(c2ccccn2)CC1)C(O)C3` (stereo not shown) [Cpd 112, 12,13-{2-[(4-pyridin-2-yl-piperazin-1-yl)carbonyloxy]-3-hydroxy-butan-1,4-yl}-12,13-dihydro-5,7-dioxo-6H-indolo[2,3-a]pyrrolo[3,4-c]carbazole], the IC50 came to 1080 nM.

As to `O=C1NCc2c1c1c3ccccc3n3c1c1c2c2ccccc2n1CCC(OC(=O)N1CCN(c2ccc(O)cc2)CC1)CC3` (stereo not shown) [Cpd 181, 12,13-(3-{[4-(4-hydroxy-phenyl)piperazin-1-yl]carbonyloxy}-pentan-1,5-yl)-6,7,12,13-tetrahydro-5-oxo-5H-indolo[2,3-a]pyrrolo[3,4-c]carbazole], the IC50 came out at 7360 nM.

In the case of `O=C1NCc2c1c1c3cc(/C=C/n4ccnc4)ccc3n3c1c1c2c2ccccc2n1CC(CO)C3` (stereo not shown) [Cpd 220, 3-[(2E)-2-1H-imidazol-1-yl-ethenyl]-12,13-(2-hydroxymethyl-propan-1,3-yl)-6,7,12,13-tetrahydro-5-oxo-5H-indolo[2,3-a]pyrrolo[3,4-c]carbazole], the IC50 worked out at 90 nM.

For `O=C1NC(=O)c2c1c1c3ccccc3n3c1c1c2c2ccccc2n1CC(O)(C(=O)O)C(O)C3` (stereo not shown) [Cpd 13, 12,13-(2-carboxy-2,3-dihydroxy-butan-1,4-yl)-12,13-dihydro-5,7-dioxo-6H-indolo[2,3-a]pyrrolo[3,4-c]carbazole], the IC50 came to 9 nM.

As to `O=C1NCc2c1c1c3cc(CN4CCOCC4)ccc3n3c1c1c2c2ccccc2n1CC(O)C(O)C3` (stereo not shown) [Cpd 194, 3-(morpholin-4-ylmethyl)-12,13-(2,3-dihydroxy-butan-1,4-yl)-6,7,12,13-tetrahydro-5-oxo-5H-indolo[2,3-a]pyrrolo[3,4-c]carbazole], the IC50 came out at 503 nM.

Take `O=C1NC(=O)c2c1c1c3ccccc3n3c1c1c2c2ccccc2n1CC(O)(C(=O)NC1CCOC1=O)C(O)C3` (stereo not shown) [Cpd 122, 12,13-{2-[(2-oxo-tetrahydro-furan-3-yl)carbamoyl]-2,3-dihydroxy-butan-1,4-yl}-12,13-dihydro-5,7-dioxo-6H-indolo[2,3-a]pyrrolo[3,4-c]carbazole]: the IC50 was found to be 63 nM.

As to `CC(C)NC(=O)OC1Cn2c3ccccc3c3c4c(c5c6ccccc6n(c5c32)CC1O)C(=O)NC4=O` (stereo not shown) [Cpd 85, 12,13-[2-(prop-2-yl-carbamoyloxy)-3-hydroxy-butan-1,4-yl]-12,13-dihydro-5,7-dioxo-6H-indolo[2,3-a]pyrrolo[3,4-c]carbazole], the IC50 came to 14 nM.

For the compound `CN1CCN(CCCNC(=O)OC2CCCn3c4ccccc4c4c5c(c6c7ccccc7n(c6c43)C2)C(=O)NC5=O)CC1` (stereo not shown) [Cpd 116, 12,13-(2-{[3-(4-methyl-piperazin-1-yl)prop-1-yl]carbamoyloxy}-pentan-1,5-yl)-12,13-dihydro-5,7-dioxo-6H-indolo[2,3-a]pyrrolo[3,4-c]carbazole], the IC50 was over 200 nM.

On to `COCCNC(=O)OC1CCn2c3ccccc3c3c4c(c5c6ccccc6n(c5c32)C1)C(=O)NC4=O` (stereo not shown) [Cpd 41, 12,13-{2-[(2-methoxy-ethyl)carbamoyloxy]-butan-1,4-yl}-12,13-dihydro-5,7-dioxo-6H-indolo[2,3-a]pyrrolo[3,4-c]carbazole], for which the IC50 amounted to 8 nM.

Consider `O=C(NC1CCN(Cc2ccccc2)CC1)OC1CCn2c3ccccc3c3c4c(c5c6ccccc6n(c5c32)CC1)C(=O)NC4` (stereo not shown) [Cpd 187, 12,13-{3-[(1-benzyl-piperidin-4-yl)carbamoyloxy]-pentan-1,5-yl}-6,7,12,13-tetrahydro-5-oxo-5H-indolo[2,3-a]pyrrolo[3,4-c]carbazole], for which the IC50 was determined as 3000 nM.

On to `O=C(NC1CCNCC1)OC1CCn2c3ccccc3c3c4c(c5c6ccccc6n(c5c32)C1)C(=O)NC4=O` (stereo not shown) [Cpd 75, 12,13-[2-(piperidin-4-yl-carbamoyloxy)-butan-1,4-yl]-12,13-dihydro-5,7-dioxo-6H-indolo[2,3-a]pyrrolo[3,4-c]carbazole], for which the IC50 turned out to be 35 nM.

Turning to `O=C1NC(=O)c2c1c1c3ccccc3n3c1c1c2c2ccccc2n1CC(O)(C(=O)NC(CO)CO)C(O)C3` (stereo not shown) [Cpd 118, 12,13-{2-[(1,3-hydroxy-isopropyl)carbamoyl]-2,3-dihydroxy-butan-1,4-yl}-12,13-dihydro-5,7-dioxo-6H-indolo[2,3-a]pyrrolo[3,4-c]carbazole], the IC50 stood at 36 nM.

For `O=C1NC(=O)c2c1c1c3cc(-c4cncnc4)ccc3n3c1c1c2c2ccccc2n1CC(O)CC3` (stereo not shown) [Cpd 34, 3-pyrimidin-5-yl-12,13-(2-hydroxy-butan-1,4-yl)-12,13-dihydro-5,7-dioxo-6H-indolo[2,3-a]pyrrolo[3,4-c]carbazole], the IC50 amounted to 66 nM.

Consider `O=C1NC(=O)c2c1c1c3ccccc3n3c1c1c2c2ccccc2n1CC(OC(=O)N1CCN(Cc2ccc4c(c2)OCO4)CC1)CC3` (stereo not shown) [Cpd 54, 12,13-(2-{[4-(benzo[1,3]dioxol-5-yl-methyl)piperazin-1-yl]carbonyloxy}-butan-1,4-yl)-12,13-dihydro-5,7-dioxo-6H-indolo[2,3-a]pyrrolo[3,4-c]carbazole], for which the concentration for half-maximal inhibition (IC50) was 1000 nM.
